#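 Compound exposure: 48 hours, 5 concentrations, 96-well plates. Here, GI50 denotes the concentration required for 50% inhibition of growth.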 Activity calls are given as the source filed them. Rule as the data show it: active = GI50 up to about 1.1 µM and inactive = higher.
# Experiments:
# Experiment in all cases: growth of human tumour cells (NCI), 48 h
# [1] = tested on: K562
# [2] = tested on: SF-268
# [3] = tested on: NCI-H226
# [4] = tested on: SK-MEL-2
# [5] = tested on: HT-29
# [6] = tested on: CCRF-CEM
# [7] = tested on: BT-549
# [8] = tested on: SR
# [9] = tested on: Malme-3M
# [10] = tested on: HCT-116
# [11] = tested on: MCF7
# [12] = tested on: COLO 205
# [13] = tested on: A498
# [14] = tested on: SW-620
# [15] = tested on: SK-MEL-28
# [16] = tested on: CAKI-1
# [17] = tested on: MDA-N
# [18] = tested on: PC-3
# [19] = tested on: IGROV-1
# [20] = tested on: HCC 2998
SMILES,GI50 [1],GI50 [2],GI50 [3],GI50 [4],GI50 [5],GI50 [6],GI50 [7],GI50 [8],GI50 [9],GI50 [10],GI50 [11],GI50 [12],GI50 [13],GI50 [14],GI50 [15],GI50 [16],GI50 [17],GI50 [18],GI50 [19],GI50 [20]
Cc1ccc(OP(=O)(Oc2ccc(C)cc2)N2C=Cc3ccccc3C2C#N)cc1 (stereo unspecified),> 100 µM (inactive),> 100 µM (inactive),> 100 µM (inactive),> 100 µM (inactive),> 100 µM (inactive),> 100 µM (inactive),> 100 µM (inactive),> 100 µM (inactive),82.8 µM (inactive),> 100 µM (inactive),> 100 µM (inactive),> 100 µM (inactive),> 100 µM (inactive),> 100 µM (inactive),> 100 µM (inactive),> 100 µM (inactive),> 100 µM (inactive),> 100 µM (inactive),> 100 µM (inactive),–
NC(Cc1ccc(O)cn1)C(=O)NC(C(=O)O)c1ccccc1 (stereo unspecified),> 100 µM (inactive),> 100 µM (inactive),> 100 µM (inactive),–,> 100 µM (inactive),> 100 µM (inactive),> 100 µM (inactive),> 100 µM (inactive),> 100 µM (inactive),> 100 µM (inactive),> 100 µM (inactive),> 100 µM (inactive),> 100 µM (inactive),> 100 µM (inactive),> 100 µM (inactive),> 100 µM (inactive),> 100 µM (inactive),> 100 µM (inactive),> 100 µM (inactive),> 100 µM (inactive)
O=C(O)c1ccccc1/C=N/N=C1NCCCCN1,> 100 µM (inactive),> 100 µM (inactive),> 100 µM (inactive),> 100 µM (inactive),> 100 µM (inactive),> 100 µM (inactive),> 100 µM (inactive),> 100 µM (inactive),> 100 µM (inactive),> 100 µM (inactive),> 100 µM (inactive),> 100 µM (inactive),> 100 µM (inactive),> 100 µM (inactive),> 100 µM (inactive),–,> 100 µM (inactive),> 100 µM (inactive),> 100 µM (inactive),> 100 µM (inactive)
CN1N=C(c2ccccc2)C(C(c2ccccc2[N+](=O)[O-])C2C(=O)N(C)N=C2c2ccccc2)C1=O (stereo unspecified),33.9 µM (inactive),97.7 µM (inactive),> 51.1 µM (inactive),66.5 µM (inactive),> 68.7 µM (inactive),26.8 µM (inactive),63.4 µM (inactive),–,> 100 µM (inactive),> 78.7 µM (inactive),47.1 µM (inactive),> 100 µM (inactive),> 81.8 µM (inactive),99.3 µM (inactive),> 100 µM (inactive),> 100 µM (inactive),> 100 µM (inactive),67.5 µM (inactive),25.1 µM (inactive),53 µM (inactive)
O=C(O)c1cc(O)c2c(c1)Cc1cccc(O)c1C2=O,40 µM (inactive),25.4 µM (inactive),24.1 µM (inactive),–,42.9 µM (inactive),29.4 µM (inactive),30.5 µM (inactive),26.1 µM (inactive),19.7 µM (inactive),23.9 µM (inactive),30.1 µM (inactive),24.2 µM (inactive),26.9 µM (inactive),38.5 µM (inactive),34.1 µM (inactive),–,> 10 µM (inactive),29.2 µM (inactive),> 10 µM (inactive),41.4 µM (inactive)
CN(N=O)c1ccc(/C=C/c2ccnc3ccccc23)cc1,78.9 µM (inactive),79.8 µM (inactive),47.8 µM (inactive),> 100 µM (inactive),43.3 µM (inactive),47.3 µM (inactive),> 100 µM (inactive),31.8 µM (inactive),86.3 µM (inactive),34 µM (inactive),53.8 µM (inactive),39.3 µM (inactive),60.4 µM (inactive),73.3 µM (inactive),> 100 µM (inactive),42.3 µM (inactive),75.3 µM (inactive),76.4 µM (inactive),49 µM (inactive),–
COc1ccc(OC)c(Cc2cnc3nc(N)nc(N)c3c2C)c1 [PIRITREXIM ISETHIONATE],< 0.01 µM (active),0.0957 µM (active),2.19 µM (inactive),0.986 µM (active),< 0.0168 µM (active),< 0.0198 µM (active),13.4 µM (inactive),0.03 µM (active),–,< 0.0112 µM (active),0.634 µM (active),12.9 µM (inactive),–,< 0.0231 µM (active),1.25 µM (inactive),0.0456 µM (active),< 0.018 µM (active),0.0353 µM (active),< 0.0111 µM (active),0.258 µM (active)

# — ChEMBL document CHEMBL1201862, “PubChem BioAssay data set” (2004)
